Tests used:
Type in all cases: in vivo
Conditions in all cases: evaluated after 13 days
Zea mays (ZEAMX) [1] = test: Pre-emergence Test, Zea mays (ZEAMX)
[2] = test system: Ipomoea hederacea (IPOHE); test: Pre-emergence Test, Ipomoea hederacea (IPOHE)
[3] = test system: Amaranthus retoflexus (AMARE); test: Post-emergence Test, Amaranthus retoflexus (AMARE); parameters: key to percentage damage caused to the plant, AMARE (five-point scale): 5=81-100%, 4=61-80%, 3=41-60%, 2=21-40%, 1=0-20% damage
Summary of the method: (§1)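 Scores are percentage plant damage on a 1–5 scale (1=0-20%, 2=21-40%, 3=41-60%, 4=61-80%, 5=81-100%), read 13 days after treatment. Pots received a spray at 1000 g/ha unless otherwise stated, formulated in acetone/water (50:50) containing 0.5% Tween 20.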

[4] = test system: Amaranthus palmeri (AMAPA); test: Pre-emergence Test, Amaranthus palmeri (AMAPA)
[5] = test system: Amaranthus palmeri (AMAPA); test: Post-emergence Test, Amaranthus palmeri (AMAPA); parameters: key: 5=81-100%, 4=61-80%, 3=41-60%, 2=21-40%, 1=0-20% damage
Summary of the method: as §1

Zea mays (ZEAMX) [6] = test: Post-emergence Test, Zea mays (ZEAMX); parameters: key to percentage damage caused to the plant, ZEAMX (five-point scale): 5=81-100%, 4=61-80%, 3=41-60%, 2=21-40%, 1=0-20% damage
Summary of the method: as §1

[7] = test system: Ipomoea hederacea (IPOHE); test: Post-emergence Test, Ipomoea hederacea (IPOHE); parameters: key to percentage damage caused to the plant, IPOHE (five-point scale): 5=81-100%, 4=61-80%, 3=41-60%, 2=21-40%, 1=0-20% damage
Summary of the method: as §1

Setaria faberi (SETFA) [8] = test: Pre-emergence Test, Setaria faberi (SETFA)
[9] = test system: Amaranthus retoflexus (AMARE); test: Pre-emergence Test, Amaranthus retoflexus (AMARE)
[10] = test system: Echinochloa crus-galli (ECHCG); test: Post-emergence Test, Echinochloa crus-galli (ECHCG); parameters: key to percentage damage caused to the plant, ECHCG (five-point scale): 5=81-100%, 4=61-80%, 3=41-60%, 2=21-40%, 1=0-20% damage
Summary of the method: as §1

Setaria faberi (SETFA) [11] = test: Post-emergence Test, Setaria faberi (SETFA); parameters: key to percentage damage caused to the plant, SETFA (five-point scale): 5=81-100%, 4=61-80%, 3=41-60%, 2=21-40%, 1=0-20% damage
Summary of the method: as §1

[12] = test system: Echinochloa crus-galli (ECHCG); test: Pre-emergence Test, Echinochloa crus-galli (ECHCG)

Compound	Pre-emergence Test ZEAMX, percentage damage caused to the plant (five-point scale) (Zea mays (ZEAMX) [1]; 1000 g/ha)	Pre-emergence Test IPOHE, percentage damage caused to the plant (five-point scale) ([2]; 1000 g/ha)	percentage damage caused to the plant, AMARE (five-point scale) ([3]; 250 g/Ha)	percentage damage caused to the plant, AMARE (five-point scale) ([3]; 1000 g/ha)	Pre-emergence Test AMAPA, percentage damage caused to the plant (five-point scale) ([4]; 1000 g/ha)	percentage damage caused to the plant, AMAPA (five-point scale) ([5]; 250 g/Ha)	percentage damage caused to the plant, AMAPA (five-point scale) ([5]; 1000 g/ha)	percentage damage caused to the plant, ZEAMX (five-point scale) (Zea mays (ZEAMX) [6]; 250 g/Ha)	percentage damage caused to the plant, ZEAMX (five-point scale) (Zea mays (ZEAMX) [6]; 1000 g/ha)	percentage damage caused to the plant, IPOHE (five-point scale) ([7]; 250 g/Ha)	percentage damage caused to the plant, IPOHE (five-point scale) ([7]; 1000 g/ha)	Pre-emergence Test SETFA, percentage damage caused to the plant (five-point scale) (Setaria faberi (SETFA) [8]; 1000 g/ha)	Pre-emergence Test AMARE, percentage damage caused to the plant (five-point scale) ([9]; 1000 g/ha)	percentage damage caused to the plant, ECHCG (five-point scale) ([10]; 250 g/Ha)	percentage damage caused to the plant, ECHCG (five-point scale) ([10]; 1000 g/ha)	percentage damage caused to the plant, SETFA (five-point scale) (Setaria faberi (SETFA) [11]; 250 g/Ha)	percentage damage caused to the plant, SETFA (five-point scale) (Setaria faberi (SETFA) [11]; 1000 g/ha)	Pre-emergence Test ECHCG, percentage damage caused to the plant (five-point scale) ([12]; 1000 g/ha)	further results
CCn1c(Cn2cc(C(=O)OC)cn2)cc(=O)c(C(=O)O)c1-c1ccc(Cl)c(Cl)c1 [Compound 40, 2-(3,4-dichlorophenyl)-1-ethyl-6-[(4-methoxycarbonylpyrazol-1-yl)methyl]-4-oxo-pyridine-3-carboxylic acid]	0	2 (2=21-40%)	1 (1=0-20%)	0	3 (3=41-60%)	0	1 (1=0-20%)	0	2 (2=21-40%)	0	2 (2=21-40%)	1 (1=0-20%)	1 (1=0-20%)	1 (1=0-20%)	0	0	1 (1=0-20%)	0	–
CCOC(=O)c1c(-c2ccc(Cl)c(Cl)c2)n(CC)c(Cn2ccc(Cl)n2)c(Br)c1=O [Compound 27, ethyl 5-bromo-6-[(3-chloropyrazo1-1-yl)methyl]-2-(3,4-dichlorophenyl)-1-ethyl-4-oxo-pyridine-3-carboxylate]	0	0	–	0	0	–	0	–	0	–	0	0	1 (1=0-20%)	–	0	–	0	0	–
CCn1c(Cn2nc(C(=O)OC)cc2C(=O)OC)cc(=O)c(C(=O)O)c1-c1ccc(Cl)c(Cl)c1 [Compound 115, 6-[[3,5-bis(methoxycarbonyl)pyrazol-1-yl]methyl]-2-(3,4-dichlorophenyl)-1-ethyl-4-oxo-pyridine-3-carboxylic acid]	0	0	1 (1=0-20%)	0	1 (1=0-20%)	1 (1=0-20%)	2 (2=21-40%)	0	1 (1=0-20%)	0	0	1 (1=0-20%)	0	0	0	0	0	0	–
CCn1c(Cn2ccc(OC)n2)cc(=O)c(C(=O)O)c1-c1ccc(Cl)c(Cl)c1 [Compound 38, 2-(3,4-dichlorophenyl)-1-ethyl-6-[(3-methoxypyrazol-1-yl)methyl]-4-oxo-pyridine-3-carboxylic acid]	5 (5=81-100%)	4 (4=61-80%)	2 (2=21-40%)	4 (4=61-80%)	3 (3=41-60%)	1 (1=0-20%)	4 (4=61-80%)	2 (2=21-40%)	4 (4=61-80%)	4 (4=61-80%)	3 (3=41-60%)	5 (5=81-100%)	2 (2=21-40%)	3 (3=41-60%)	4 (4=61-80%)	4 (4=61-80%)	4 (4=61-80%)	5 (5=81-100%)	–
CCCOc1ccn(Cc2cc(=O)c(C(=O)O)c(-c3ccc(Cl)c(Cl)c3)n2CC)n1 [Compound 160, 2-(3,4-dichlorophenyl)-1-ethyl-4-oxo-6-[(3-propoxypyrazol-1-yl)methyl]pyridine-3-carboxylic acid]	3 (3=41-60%)	2 (2=21-40%)	0	1 (1=0-20%)	0	0	1 (1=0-20%)	1 (1=0-20%)	4 (4=61-80%)	3 (3=41-60%)	3 (3=41-60%)	5 (5=81-100%)	1 (1=0-20%)	2 (2=21-40%)	4 (4=61-80%)	2 (2=21-40%)	4 (4=61-80%)	5 (5=81-100%)	Pre-emergence Test ZEAMX, percentage damage caused to the plant (five-point scale) (Zea mays (ZEAMX) [1]; 250 g/Ha (*)): 0; Pre-emergence Test IPOHE, percentage damage caused to the plant (five-point scale) ([2]; 250 g/Ha (*)): 2 (2=21-40%); Pre-emergence Test AMAPA, percentage damage caused to the plant (five-point scale) ([4]; 250 g/Ha (*)): 0; Pre-emergence Test SETFA, percentage damage caused to the plant (five-point scale) (Setaria faberi (SETFA) [8]; 250 g/Ha (*)): 2 (2=21-40%); Pre-emergence Test AMARE, percentage damage caused to the plant (five-point scale) ([9]; 250 g/Ha (*)): 0; Pre-emergence Test ECHCG, percentage damage caused to the plant (five-point scale) ([12]; 250 g/Ha (*)): 2 (2=21-40%)

Source: patent publication US20250098679A1, “HERBICIDAL PYRIDONE DERIVATIVES” (SYNGENTA CROP PROTECTION AG, priority 2021, published 2025)
